Assay results taken from PubChem BioAssay (NCI).
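Tested at 5 concentrations; 48 h exposure; 96-well plates; endpoints linearly interpolated, else capped at highest concentration. Abbreviation: GI50, concentration required for 50% inhibition of growth. TGI: total growth inhibition.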

How the values were obtained:
Test in all cases: growth of human tumour cells (NCI), 48 h
MALME-3M melanoma = system: MALME-3M melanoma
SF-295 CNS = system: SF-295 CNS
BT-549 breast = system: BT-549 breast
SK-MEL-5 melanoma = system: SK-MEL-5 melanoma
K-562 leukemia = system: K-562 leukemia
EKVX NSCLC = system: EKVX NSCLC
T-47D breast = system: T-47D breast
HCT-15 colon = system: HCT-15 colon
MCF7 breast = system: MCF7 breast
SNB-75 CNS = system: SNB-75 CNS

Compound	TGI (MALME-3M melanoma)	TGI (SF-295 CNS)	TGI (BT-549 breast)	TGI (SK-MEL-5 melanoma)	TGI (K-562 leukemia)	TGI (EKVX NSCLC)	TGI (T-47D breast)	TGI (HCT-15 colon)	TGI (MCF7 breast)	TGI (SNB-75 CNS)	GI50 (MALME-3M melanoma)	GI50 (SF-295 CNS)	GI50 (BT-549 breast)	GI50 (SK-MEL-5 melanoma)	GI50 (K-562 leukemia)	GI50 (EKVX NSCLC)	GI50 (T-47D breast)	GI50 (HCT-15 colon)	GI50 (MCF7 breast)	GI50 (SNB-75 CNS)
Nc1nc(Cl)cc(Oc2ccc(Cl)cc2)n1	> 100 µM	> 100 µM	> 100 µM	> 100 µM	> 100 µM	> 100 µM	> 100 µM	> 100 µM	> 100 µM	> 100 µM	–	–	–	–	–	–	–	–	–	–
C=c1c2ccccc2oc2nc3[nH]c(N)c(C#N)c(N)c3c(=N)c12	78.7 µM	> 100 µM	> 100 µM	57.2 µM	> 100 µM	73 µM	> 100 µM	> 100 µM	> 100 µM	90.3 µM	–	–	–	–	–	–	–	–	–	–
Cn1c(SCc2ccc([N+](=O)[O-])cc2)nnc1C12CC3CC(CC(C3)C1)C2	> 10 µM	> 10 µM	> 10 µM	> 10 µM	> 10 µM	> 10 µM	> 10 µM	> 10 µM	> 10 µM	> 10 µM	–	–	–	–	–	–	–	–	–	–
COc1c(C(=O)CC2c3c(cc4oc(C)cc(=O)c4c3OC)OC(=N)C2c2nc3ccccc3[nH]2)c(O)c(OC)c2occc12 (stereo not given)	> 100 µM	> 100 µM	> 100 µM	> 100 µM	> 100 µM	> 100 µM	> 100 µM	> 100 µM	> 100 µM	> 100 µM	–	–	–	–	–	–	–	–	–	–
CC(C)(C)c1ccc(OCCOc2ccc(C(C)(C)C)cc2NC=O)c(NC=O)c1	24.8 µM	25 µM	32.8 µM	15.3 µM	> 43.7 µM	98 µM	> 86 µM	26.4 µM	23.2 µM	> 78.7 µM	–	–	–	–	–	–	–	–	–	–
CN(C)CC(O)CNC(=O)Nc1ccccc1 (stereo not given)	> 100 µM	> 100 µM	> 100 µM	> 100 µM	> 100 µM	> 100 µM	> 100 µM	> 100 µM	> 100 µM	> 100 µM	–	–	–	–	–	–	–	–	–	–
CC(=O)OC1CC[C@@]2(C)C(=CC[C@@H]3[C@@H]2CC[C@]2(C)Nc4c(cnn4-c4ccc(F)cc4)C[C@@H]32)C1 (stereo not given in full)	> 77.6 µM	36.4 µM	> 100 µM	> 93.9 µM	> 100 µM	> 100 µM	> 100 µM	> 100 µM	> 95.6 µM	66.5 µM	–	–	–	–	–	–	–	–	–	–
COc1cccc2c1CCc1sc(CN3CCN(C)CC3)nc1-2	> 100 µM	> 100 µM	> 100 µM	80.1 µM	> 100 µM	> 100 µM	> 100 µM	> 100 µM	> 100 µM	> 100 µM	–	–	–	–	–	–	–	–	–	–
COc1cc(/C=[N+](\[O-])c2ccccc2Cl)ccc1OC(=S)S	> 100 µM	> 100 µM	68.3 µM	38.2 µM	> 100 µM	> 100 µM	53.4 µM	> 100 µM	> 100 µM	63.6 µM	–	–	–	–	–	–	–	–	–	–
CC(=O)[C@H]1CC[C@@H]2[C@]1(C)CC=C1[C@]23C=C[C@]2(C[C@@H](O)CC[C@]12C)C(C(=O)O)C3C(=O)O (stereo not given in full)	> 100 µM	> 100 µM	> 100 µM	> 100 µM	> 100 µM	> 100 µM	> 100 µM	> 100 µM	> 100 µM	> 100 µM	–	–	–	–	–	–	–	–	–	–
O=C(NNC(=O)c1ccccc1O)c1cccs1	> 100 µM	> 100 µM	> 100 µM	> 100 µM	> 100 µM	> 100 µM	> 100 µM	> 100 µM	> 100 µM	> 100 µM	–	–	–	–	–	–	–	–	–	–
O=S1(=O)OCCOS(=O)(=O)C1C1c2ccccc2-c2ccccc21	> 100 µM	> 100 µM	> 100 µM	> 100 µM	> 100 µM	> 100 µM	> 100 µM	> 100 µM	> 100 µM	31.9 µM	–	–	–	–	–	–	–	–	–	–
O=C(/C=C/c1cc2ccccc2[nH]c1=O)c1ccc(O)cc1	33.6 µM	44 µM	5.35 µM	13.3 µM	> 100 µM	27.2 µM	20.4 µM	12.8 µM	16.8 µM	23 µM	10.4 µM	7.04 µM	1.95 µM	3.98 µM	3.89 µM	13.4 µM	4.19 µM	2.71 µM	3.49 µM	9.3 µM
Cc1[nH]c(-c2ccccc2)c(O)c1C(=O)OC1CC(C)CCC1C(C)C (stereo not given)	32.9 µM	24.8 µM	33 µM	30.2 µM	> 100 µM	23.9 µM	26.8 µM	32.1 µM	14.9 µM	34.3 µM	–	–	–	–	–	–	–	–	–	–
CCOC(=O)C1=C(C)NC(c2ccccc2)=C(C(=O)OCc2ccccc2)C1C#Cc1ccccc1 (stereo not given)	> 100 µM	> 100 µM	> 100 µM	> 100 µM	> 100 µM	> 100 µM	> 100 µM	> 100 µM	> 100 µM	> 100 µM	–	–	–	–	–	–	–	–	–	–
CCN1CCC(O)(/C=C/c2ccc(Cl)c(Cl)c2)C(C(=O)/C=C/c2ccc(Cl)c(Cl)c2)C1 (stereo not given)	2.5 µM	1.74 µM	2.01 µM	2.18 µM	8.51 µM	1.89 µM	2.36 µM	4.52 µM	2.67 µM	2.37 µM	–	–	–	–	–	–	–	–	–	–
CCOC(=O)/C(C(N)=O)=C(/O)c1cnccn1	> 100 µM	> 100 µM	> 100 µM	> 100 µM	> 100 µM	> 100 µM	> 100 µM	> 100 µM	> 100 µM	> 100 µM	–	–	–	–	–	–	–	–	–	–
CN1C(=O)c2c(c3c4ccccc4n(C)c3c3c2c2ccccc2n3C)C1=O	> 100 µM	> 100 µM	> 100 µM	> 100 µM	> 100 µM	> 100 µM	> 100 µM	> 100 µM	> 100 µM	> 100 µM	–	–	–	–	–	–	–	–	–	–
c1ccc(C(OCCN2CC3CCC(C2)N3)c2ccccc2)cc1	30.5 µM	> 100 µM	> 100 µM	36.1 µM	> 100 µM	> 100 µM	> 100 µM	> 100 µM	> 100 µM	> 100 µM	–	–	–	–	–	–	–	–	–	–
CCc1c[n+]2c(cc1C1=CN3c4ccccc4[C@]45CCN6C/C(=C/CO)[C@H](C[C@H]64)[C@@H]([C@@H]1O)[C@H]35)-c1[nH]c3ccccc3c1CC2	> 50 µM	> 50 µM	> 50 µM	> 50 µM	> 50 µM	> 50 µM	> 50 µM	> 50 µM	> 50 µM	> 50 µM	–	–	–	–	–	–	–	–	–	–
CCCCCCCCC/C=C1/CC(CO)(COC(=O)C2CCCCC2)OC1=O (stereo not given)	> 100 µM	> 100 µM	> 100 µM	> 100 µM	> 100 µM	> 100 µM	> 100 µM	> 100 µM	> 100 µM	> 100 µM	–	–	–	–	–	–	–	–	–	–
COc1cc2c(cc1OC)C/C(=N\O)c1cc(OC)c(OC)cc1/C=C\2	9.9 µM	> 61 µM	97.1 µM	8.26 µM	> 100 µM	> 100 µM	> 84.3 µM	> 100 µM	> 96.4 µM	78.1 µM	–	–	–	–	–	–	–	–	–	–
Cc1ccnc2[nH]c(-c3ccc(Cl)cc3)cc(=O)c12	> 100 µM	> 100 µM	> 100 µM	> 100 µM	60 µM	> 100 µM	> 100 µM	> 100 µM	> 100 µM	25.8 µM	–	–	–	–	–	–	–	–	–	–
OC[C@H](O)[C@@H](OCc1ccccc1)[C@H](NCc1ccccc1)c1cccs1	> 100 µM	> 100 µM	> 100 µM	> 100 µM	> 100 µM	> 100 µM	> 100 µM	> 100 µM	> 100 µM	> 100 µM	–	–	–	–	–	–	–	–	–	–
CCOP(=O)(OCC)C(Cc1cn(S(=O)(=O)c2ccc(C)cc2)cn1)C(=O)O (stereo not given)	> 100 µM	> 100 µM	> 100 µM	> 100 µM	> 100 µM	> 100 µM	> 100 µM	> 100 µM	> 100 µM	> 100 µM	–	–	–	–	–	–	–	–	–	–
O=c1oc2c(Cl)cc(Cl)cc2cc1-c1cn2c(n1)sc1ccccc12	> 100 µM	> 100 µM	87.4 µM	> 100 µM	53.3 µM	> 100 µM	> 100 µM	> 100 µM	> 100 µM	> 100 µM	–	–	–	–	–	–	–	–	–	–
COc1cc([C@@H]2c3cc4c(cc3[C@H](OC3OC5COC(C(C)C)OC5C(O)C3O)C3COC(=O)[C@@H]32)OCO4)cc(OC)c1OC (stereo not given in full)	30.5 µM	> 23.8 µM	20.2 µM	20.4 µM	> 100 µM	> 100 µM	65.5 µM	94.1 µM	13.2 µM	96.8 µM	–	–	–	–	–	–	–	–	–	–
Cc1cc2nc3c(C)c4ccccc4c(C)n3c2cc1C	6.66 µM	> 10 µM	> 10 µM	> 10 µM	> 10 µM	> 10 µM	> 10 µM	6.14 µM	> 10 µM	> 10 µM	–	–	–	–	–	–	–	–	–	–
